Assay results taken from patent publication US5318964A, “Hydroxamic derivatives and pharmaceutical compositions” (Hoffmann-La Roche Inc., priority 1992, dated 1994).

biological target: T1, collagenase obtained from a culture of human synovial fibroblasts (Homo sapiens, UniProt P03956); experiment: in vitro collagenase inhibiting activity (14C-acetylated collagen type I from rat tail tendons as substrate, microtitre plate assay); format: biochemical; conditions: trypsin-activated collagenase from human synovial fibroblasts; 14C-acetylated collagen type I (rat tail tendons) substrate; concentration reducing substrate cleavage and solubilization to 50% of enzyme alone
T1 construct: endogenous in cells; host or cells: human synovial fibroblasts in culture (conditioned medium)
T1 sequence (P03956 100-469): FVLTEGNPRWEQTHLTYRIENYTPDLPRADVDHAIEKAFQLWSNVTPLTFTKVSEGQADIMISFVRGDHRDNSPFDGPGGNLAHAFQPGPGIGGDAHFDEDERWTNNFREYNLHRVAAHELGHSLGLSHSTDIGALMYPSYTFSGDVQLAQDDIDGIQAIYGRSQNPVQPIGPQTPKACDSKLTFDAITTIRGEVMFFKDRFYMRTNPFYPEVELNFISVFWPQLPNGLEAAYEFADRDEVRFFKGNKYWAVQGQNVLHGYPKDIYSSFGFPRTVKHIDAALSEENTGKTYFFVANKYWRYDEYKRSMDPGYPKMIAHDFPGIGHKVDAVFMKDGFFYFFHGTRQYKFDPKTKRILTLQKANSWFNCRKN
Experimental: As mentioned earlier, the compounds of formula I and their pharmaceutically acceptable salts are collagenase inhibitors. […] Collagenase activity was measured using ^14 C-acetylated collagen type I from rat tail tendons as the substrate and employing the microtitre plate assay method of Johnson-Wint, B, Anal. Biochem. (1980), 104, 175. The IC50 is that concentration of a compound or salt of the invention in the enzyme digestion which reduces substrate cleavage and solubilization to 50% of that achieved by the enzyme alone.
The results obtained in the foregoing test with representative compounds and salts of the invention are compiled in Table I hereinafter: […]

Row | SMILES | IC50 [nM]
1 | CC(C)C[C@@H](C(=O)N1CCOCC1)C(CN1C(=O)c2ccccc2C1=O)C(=O)NO (single isomer, unassigned) [Compound A, 4-[2(R)-[1(R or S)-(Hydroxycarbamoyl)-2-phthalimidoethyl]-4-methylvalery]morpholine] | 10
2 | CC(C)C[C@@H](C(=O)N1CCCCC1)C(Cn1c(=O)n(C)n(C)c1=O)C(=O)NO (single isomer, unassigned) [Compound D, 1-[2(R)-[1(R or S)-(Hydroxycarbamoyl)-2-(1,2-dimethyl-3,5-dioxo-1,2,4-triazolidin-4-yl)ethyl]-4-methylvaleryl]piperidine] | 15
3 | CC(C)C[C@@H](C(=O)N1CCSCC1)C(CN1C(=O)CN(C)C1=O)C(=O)NO (single isomer, unassigned) [Compound E, 4-[2(R)-[1(R or S)-(Hydroxycarbamoyl)-2-(3-methyl-2,5-dioxo-1-imidazolidinyl)ethyl]-4-methylvaleryl]tetrahydro-1,4-thiazine] | 7

The remaining compounds from weak to strong by IC50, led by results:

Row | IC50 [nM] | SMILES
4 | 6.9 | CC(C)C[C@@H](C(=O)N1CCC(O)CC1)C(CN1C(=O)N(C)C(C)(C)C1=O)C(=O)NO (single isomer, unassigned) [Compound G, 1-[2(R)-[1(R or S)-(Hydroxycarbamoyl)-2-(3,4,4-trimethyl-2,5-dioxo-1-imidazolidinyl)ethyl]-4-methylvaleryl]-4-piperidinol]
5 | 6 | CC(C)C[C@@H](C(=O)N1CCSCC1)C(CN1C(=O)c2ccccc2C1=O)C(=O)NO (single isomer, unassigned) [Compound B, 4-[2(R)-[1(R or S)-(Hydroxycarbamoyl)-2-phthalimidoethyl]-4-methylvaleryl]tetrahydro-1,4-thiazine]
6 | 5 | CC(C)C[C@@H](C(=O)N1CCC(O)CC1)C(CN1C(=O)c2ccccc2C1=O)C(=O)NO (single isomer, unassigned) [Compound C, 1-[2(R)-[1(R or S)-(Hydroxycarbamoyl)-2-phthalimidoethyl]-4-methylvaleryl]-4-piperidinol]
7 | 1.2 | CNC(=O)[C@@H]1CCCNN1C(=O)[C@H](CC(C)C)C(CN1C(=O)c2ccccc2C1=O)C(=O)NO (single isomer, unassigned) [Compound F, Hexahydro-2-[2(R)-[1(R or S)-(hydroxycarbamoyl)-2-phthalimidoethyl]-4-methylvaleryl]-N-methyl-3(S)-pyridazinecarboxamide]
